In ChEMBL document CHEMBL1201862, “PubChem BioAssay data set” (2004):
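Compound exposure: 48 hours, 5 concentrations, 96-well plates. At the GI50, growth is halved.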 Activity calls are given as the source filed them. Rule as the data show it: active = GI50 up to about 1.1 µM and inactive = higher.

Columns and labels:
Assay in all cases: NCI anticancer screen, dose series, 48 h
[1] = system: HCC 2998
[2] = system: UACC-62
[3] = system: SN12C
[4] = system: OVCAR-5
[5] = system: U-251
[6] = system: SF-295
[7] = system: OVCAR-4
[8] = system: SNB-19
[9] = system: RPMI-8226
[10] = system: EKVX
[11] = system: CAKI-1
[12] = system: COLO 205
[13] = system: TK-10
[14] = system: SF-268
[15] = system: SK-MEL-28
[16] = system: HCT-116
[17] = system: NCI/ADR-RES
[18] = system: SK-MEL-2
[19] = system: SK-MEL-5
[20] = system: PC-3
[21] = system: DU-145
[22] = system: A549
[23] = system: MDA-N
[24] = system: SW-620
[25] = system: ACHN
[26] = system: MDA-MB-435
[27] = system: RXF 393
[28] = system: K562
[29] = system: MCF7
[30] = system: MDA-MB-231
[31] = system: UO-31
[32] = system: SNB-75
[33] = system: UACC-257
[34] = system: 786-0
[35] = system: NCI-H23
[36] = system: BT-549
[37] = system: NCI-H226
[38] = system: HCT-15
[39] = system: KM12
[40] = system: SK-OV-3
[41] = system: NCI-H460
[42] = system: HT-29
[43] = system: NCI-H522
[44] = system: M14
[45] = system: IGROV-1
[46] = system: HOP-92
[47] = system: A498
[48] = system: MOLT-4
[49] = system: Malme-3M
[50] = system: CCRF-CEM
[51] = system: SF-539
[52] = system: HOP-62
[53] = system: OVCAR-8
[54] = system: SR
[55] = system: OVCAR-3
[56] = system: LOX IMVI
[57] = system: T47D
[58] = system: HL-60

Measured: GI50

Nn1c(CCCCCCCCc2nnc(COc3ccc(Cl)cc3Cl)n2N)nnc1COc1ccc(Cl)cc1Cl
37.7 µM: [38]
inactive: [1] 56.6 µM | [2] 38.6 µM | [3] 22.2 µM | [4] 35.6 µM | [5] 62.4 µM | [6] > 10 µM | [7] 46.5 µM | [8] 30.9 µM | [9] 21.6 µM | [10] 38.3 µM | [11] 41.9 µM | [12] 25.8 µM | [13] 89.9 µM | [14] 33 µM | [15] 68.5 µM | [16] 16.7 µM | [17] 31.1 µM | [18] 42 µM | [19] 38.5 µM | [20] 31 µM | [21] 42.9 µM | [22] 32.7 µM | [23] 62.5 µM | [24] > 100 µM | [25] 44.9 µM | [26] 48.3 µM | [27] 38.5 µM | [28] 63.8 µM | [29] 34.9 µM | [30] 52.4 µM | [31] 47.1 µM | [32] > 10 µM | [33] 61.5 µM | [34] 63.5 µM | [35] 38 µM | [36] 35.9 µM | [37] 63.5 µM | [39] 40 µM | [40] > 10 µM | [41] 63.8 µM | [42] 29.1 µM | [43] 17.3 µM | [44] 49.3 µM | [45] 6.43 µM | [46] 28.4 µM | [47] 45.3 µM | [48] 20 µM | [49] 6.71 µM

Nc1cc(N2CCOCC2)nc(=O)n1-c1ccccc1
inactive: [1] > 100 µM | [2] > 100 µM | [3] > 100 µM | [4] > 100 µM | [5] > 100 µM | [6] > 100 µM | [50] > 100 µM | [8] > 100 µM | [9] > 100 µM | [51] > 100 µM | [10] > 100 µM | [11] > 100 µM | [12] > 100 µM | [52] > 100 µM | [53] > 100 µM | [15] > 100 µM | [16] > 100 µM | [17] > 100 µM | [18] > 100 µM | [19] > 100 µM | [54] > 100 µM | [20] > 100 µM | [21] > 100 µM | [22] > 100 µM | [23] > 100 µM | [24] > 100 µM | [25] > 100 µM | [26] > 100 µM | [28] > 100 µM | [29] > 100 µM | [31] > 100 µM | [32] > 100 µM | [33] > 100 µM | [55] > 100 µM | [34] > 100 µM | [35] > 100 µM | [36] > 100 µM | [56] > 100 µM | [57] > 100 µM | [37] > 100 µM | [39] > 100 µM | [58] 21.4 µM | [40] > 100 µM | [41] > 100 µM | [42] > 100 µM | [44] > 100 µM | [45] > 100 µM | [46] > 100 µM | [47] > 100 µM | [48] > 100 µM
> 100 µM: [38]
